According to paper PMC8667902 (Journal of Enzyme Inhibition and Medicinal Chemistry, 2021):
Several values for one entry are separate records, joined by “and”; a condition that tells them apart may be missing. Equal entries are not always repeated.

Legend:
[1] = Oxygen Radicals Absorbance Capacity by Fluorescence; conditions: for ORAC: Trolox as reference
Aβ1–42 fibrils [2] = biological target: T1, Aβ1–42 fibrils (Homo sapiens, UniProt P05067); assay: Disaggregation of self-induced Aβ1–42 aggregation; assay type: biochemical; conditions: 25 μM; ThT assay
T1 sequence (P05067 672-713): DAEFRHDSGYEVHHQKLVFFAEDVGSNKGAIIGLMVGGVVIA

huMAO-A = biological target: T2, huMAO-A (Homo sapiens, UniProt P21397); assay: huMAO-A inhibition, fluorescence method; assay type: biochemical; conditions: for inhibition at 10 µM: read-out: MAO-A percent inhibition rate
T2 sequence (P21397 1-527): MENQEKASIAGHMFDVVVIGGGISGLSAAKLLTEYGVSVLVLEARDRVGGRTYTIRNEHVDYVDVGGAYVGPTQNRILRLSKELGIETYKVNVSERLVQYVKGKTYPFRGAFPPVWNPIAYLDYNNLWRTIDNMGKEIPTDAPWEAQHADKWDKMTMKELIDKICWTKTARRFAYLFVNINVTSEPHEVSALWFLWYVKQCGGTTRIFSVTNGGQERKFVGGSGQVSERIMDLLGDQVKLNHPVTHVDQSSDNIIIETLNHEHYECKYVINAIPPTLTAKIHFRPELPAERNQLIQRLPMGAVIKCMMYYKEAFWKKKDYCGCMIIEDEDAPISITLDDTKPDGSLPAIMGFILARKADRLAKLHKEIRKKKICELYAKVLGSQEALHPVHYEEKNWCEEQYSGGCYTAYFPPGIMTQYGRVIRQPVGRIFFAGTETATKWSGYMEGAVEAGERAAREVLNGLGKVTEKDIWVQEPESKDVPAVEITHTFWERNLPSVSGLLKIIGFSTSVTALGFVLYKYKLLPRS

ratAChE = biological target: T3, ratAChE (Rattus norvegicus, UniProt P37136); assay: Ellman's method, AChE from rat cortex homogenate; assay type: biochemical; conditions: for SI = Selectivity index = IC50 (BuChE)/IC50 (AChE): ratBuChE over rat AChE
T3 sequence (P37136 32-614): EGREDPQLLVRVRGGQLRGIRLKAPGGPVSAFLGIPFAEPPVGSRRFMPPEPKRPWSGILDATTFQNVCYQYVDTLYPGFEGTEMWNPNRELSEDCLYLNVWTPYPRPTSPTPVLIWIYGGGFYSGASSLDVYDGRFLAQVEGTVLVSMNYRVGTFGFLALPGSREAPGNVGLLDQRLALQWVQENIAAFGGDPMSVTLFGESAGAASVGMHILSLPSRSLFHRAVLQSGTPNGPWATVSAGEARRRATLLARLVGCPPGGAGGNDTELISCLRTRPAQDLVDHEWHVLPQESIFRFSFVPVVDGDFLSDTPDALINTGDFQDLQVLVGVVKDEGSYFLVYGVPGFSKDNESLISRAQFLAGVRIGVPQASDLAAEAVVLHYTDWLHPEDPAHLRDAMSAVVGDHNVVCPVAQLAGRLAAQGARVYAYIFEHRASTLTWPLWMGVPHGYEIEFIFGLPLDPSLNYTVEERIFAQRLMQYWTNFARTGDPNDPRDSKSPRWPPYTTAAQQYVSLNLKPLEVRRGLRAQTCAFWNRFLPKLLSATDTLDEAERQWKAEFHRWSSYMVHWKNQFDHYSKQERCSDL

Aβ1–42 fibrils [3] = biological target: T1, Aβ1–42 fibrils; assay: Disaggregation of Cu2+-induced Aβ1–42 aggregation; assay type: biochemical; conditions: 25 μM; ThT assay
huMAO-B = biological target: T4, huMAO-B (Homo sapiens, UniProt P27338); assay: biochemical
T4 sequence (P27338 1-520): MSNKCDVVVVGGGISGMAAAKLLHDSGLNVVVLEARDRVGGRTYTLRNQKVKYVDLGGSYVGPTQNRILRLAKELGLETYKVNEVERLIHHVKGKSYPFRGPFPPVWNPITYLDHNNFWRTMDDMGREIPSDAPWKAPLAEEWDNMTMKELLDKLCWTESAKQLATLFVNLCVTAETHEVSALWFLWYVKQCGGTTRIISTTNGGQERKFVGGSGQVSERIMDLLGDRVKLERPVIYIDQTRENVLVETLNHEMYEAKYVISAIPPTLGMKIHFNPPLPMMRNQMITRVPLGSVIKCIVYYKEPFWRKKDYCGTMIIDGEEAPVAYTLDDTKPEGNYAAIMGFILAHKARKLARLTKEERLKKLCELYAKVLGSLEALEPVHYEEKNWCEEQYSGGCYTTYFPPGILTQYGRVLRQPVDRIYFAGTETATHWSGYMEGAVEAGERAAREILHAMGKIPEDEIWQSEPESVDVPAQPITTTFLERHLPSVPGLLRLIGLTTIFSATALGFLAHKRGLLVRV

eeAChE = eeAChE (Electrophorus electricus, UniProt O42275); assay: Ellman's method, electric eel AChE; assay type: biochemical
eeAChE, sequence (O42275 24-633): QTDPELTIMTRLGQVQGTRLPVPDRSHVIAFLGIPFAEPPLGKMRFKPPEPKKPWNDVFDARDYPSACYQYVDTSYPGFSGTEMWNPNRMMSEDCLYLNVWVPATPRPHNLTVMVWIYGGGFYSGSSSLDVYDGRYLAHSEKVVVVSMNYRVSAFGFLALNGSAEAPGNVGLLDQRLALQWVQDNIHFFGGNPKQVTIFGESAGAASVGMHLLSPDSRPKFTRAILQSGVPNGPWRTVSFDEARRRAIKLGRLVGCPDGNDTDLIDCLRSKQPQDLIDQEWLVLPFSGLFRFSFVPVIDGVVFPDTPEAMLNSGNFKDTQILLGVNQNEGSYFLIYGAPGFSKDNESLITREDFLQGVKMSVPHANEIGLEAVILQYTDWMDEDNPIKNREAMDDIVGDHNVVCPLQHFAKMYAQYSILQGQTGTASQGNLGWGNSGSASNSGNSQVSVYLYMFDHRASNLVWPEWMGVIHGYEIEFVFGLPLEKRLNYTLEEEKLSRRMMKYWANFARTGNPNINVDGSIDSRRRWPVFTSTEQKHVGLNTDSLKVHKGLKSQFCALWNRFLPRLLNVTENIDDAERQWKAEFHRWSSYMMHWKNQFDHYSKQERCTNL

Aβ1–42 [4] = biological target: T5, Aβ1–42 (Homo sapiens, UniProt P05067); assay: Inhibition of Cu2+-induced Aβ1–42 aggregation; assay type: biochemical; conditions: read-out: Inhibition of Aβ1–42 aggregation (%) Cu^2+-induced
T5 sequence (P05067 672-713): as the sequence (P05067 672-713) above

Aβ1–42 [5] = biological target: T5, Aβ1–42; assay: Inhibition of self-induced Aβ1–42 aggregation; assay type: biochemical; conditions: read-out: Inhibition of Aβ1–42 aggregation (%) Self-induced, 25 μM; ThT assay
ratBuChE = ratBuChE (Rattus norvegicus, UniProt Q9JKC1); assay: Ellman's method, BuChE from rat serum; assay type: biochemical
ratBuChE, sequence (Q9JKC1 24-597): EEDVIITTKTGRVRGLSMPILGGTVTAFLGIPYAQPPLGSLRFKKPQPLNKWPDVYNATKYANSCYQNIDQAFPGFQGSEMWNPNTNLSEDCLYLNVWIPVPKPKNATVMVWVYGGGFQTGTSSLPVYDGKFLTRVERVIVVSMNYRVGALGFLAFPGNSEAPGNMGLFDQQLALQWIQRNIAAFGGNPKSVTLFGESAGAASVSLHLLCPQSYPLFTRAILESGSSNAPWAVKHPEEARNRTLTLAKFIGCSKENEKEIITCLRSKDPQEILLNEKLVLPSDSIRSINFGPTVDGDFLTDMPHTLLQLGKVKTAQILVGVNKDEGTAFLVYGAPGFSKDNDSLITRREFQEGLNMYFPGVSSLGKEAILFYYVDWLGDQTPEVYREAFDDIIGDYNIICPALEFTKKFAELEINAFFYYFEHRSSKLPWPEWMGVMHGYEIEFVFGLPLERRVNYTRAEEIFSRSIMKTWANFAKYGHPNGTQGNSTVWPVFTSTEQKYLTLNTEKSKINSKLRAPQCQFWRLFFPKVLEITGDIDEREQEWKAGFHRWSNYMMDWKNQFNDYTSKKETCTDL

[6] = Metal chelation by UV-vis spectrometry and molar ratio method; assay type: physicochemical; conditions: 37.5 μM
[7] = peak of compound alone: 9d 362 nm, 17f 350 nm

Row | Compound | ORAC [1] | Disaggregation of Aβ1–42 aggregation (%) Self-induced (Aβ1–42 fibrils [2]) | inhibition at 10 µM (huMAO-A) | IC50 (ratAChE) | SI = Selectivity index = IC50 (BuChE)/IC50 (AChE) (ratAChE) | Disaggregation of Aβ1–42 aggregation (%) Cu^2+-induced (Aβ1–42 fibrils [3]) | IC50 (huMAO-B) | IC50 (eeAChE) | inhibition at 25 µM (Aβ1–42 [4]) | inhibition at 25 µM (Aβ1–42 [5]) | IC50 (ratBuChE) | inhibition at 10 µM (huMAO-B; read-out: MAO-B percent inhibition rate) | IC50 (huMAO-A) | SI = selectivity index = IC50 (hMAO-A)/IC50 (hMAO-B) (huMAO-B) | ORAC-FL value ([1]; Trolox equivalents) | shift of characteristic UV peak after adding FeSO4 and ZnCl2 [6] | characteristic UV peak after adding AlCl3 (red shift) [6, 7] | characteristic UV peak after adding CuCl2 (red shift) [6, 7]
1 | COc1ccccc1CN(C)CCCOc1ccc(/C=C/C(=O)c2c(O)cc(OC)c(OC)c2OC)cc1 [Compound 9a, (E)-1-(6-Hydroxy-2,3,4-trimethoxyphenyl)-3-(4-(3-((2-methoxybenzyl)(methyl)amino)propoxy)phenyl)prop-2-en-1-one] | 1.01 ± 0.01 μM of Trolox equivalent/μM of compounds | 26.8 ± 0.02% | 13.9% | 3.12 ± 0.02 µM | >160.3 | 54.2 ± 0.02% | 3.8 ± 0.02 µM | 1.46 ± 0.02 µM | 66.2 ± 0.02% | 57.4 ± 0.01% | > 500 µM |  |  |  |  |  |  | 
2 | COc1ccccc1CN(C)CCCOc1ccc(/C=C/C(=O)c2c(O)cc(OC)c(O)c2OC)cc1 [Compound 17a, (E)-1-(3,6-dihydroxy-2,4-dimethoxyphenyl)-3-(4-(3-((2-methoxybenzyl)(methyl)amino)propoxy)phenyl)prop-2-en-1-one] | 3.1 ± 0.02 μM of Trolox equivalent/μM of compounds | 29.9 ± 0.03% | 18.2% | 3.45 ± 0.03 µM | 94.5 | 84.6 ± 0.03% |  | 2.3 ± 0.01 µM | 91.1 ± 0.01% | 67.4 ± 0.04% | 326 ± 10.7 µM | 4.4% |  |  |  |  |  | 
3 | CCN(CCCOc1ccc(/C=C/C(=O)c2c(O)cc(OC)c(OC)c2OC)cc1)Cc1ccccc1OC [Compound 9b, (E)-3-(4-(3-(ethyl(2-methoxybenzyl)amino)propoxy)phenyl)-1-(6-hydroxy-2,3,4-trimethoxyphenyl)prop-2-en-1-one] | 0.93 ± 0.01 μM of Trolox equivalent/μM of compounds | 22.2 ± 0.03% |  | 0.67 ± 0.01 µM | >746.3 | 55.1 ± 0.22% | 8.1 ± 0.03 µM | 1.62 ± 0.01 µM | 71.6 ± 0.01% | 63.4 ± 0.03% | > 500 µM |  | 19.8 ± 0.22 µM | 2.4 |  |  |  | 
4 | CCN(CCCCOc1ccc(/C=C/C(=O)c2c(O)cc(OC)c(OC)c2OC)cc1)Cc1ccccc1OC [Compound 9d, (E)-3-(4-(4-(ethyl(2-methoxybenzyl)amino)butoxy)phenyl)-1-(6-hydroxy-2,3,4-trimethoxyphenyl)prop-2-en-1-one] | 1.01 ± 0.2 μM of Trolox equivalent/μM of compounds | 33.0 ± 0.08% |  | 0.32 ± 0.02 µM | 1409.4 | 63.2 ± 0.63% | 12.3 ± 0.08 µM | 1.2 ± 0.01 µM | 72.4 ± 0.01% | 72.7 ± 0.02% | 451 ± 1.68 µM |  | 38.2 ± 0.63 µM | 3.1 | 0.96 eq | no obvious shift | 376 nm | 444 nm
5 | CCN(CC)CCCCOc1ccc(/C=C/C(=O)c2c(O)cc(OC)c(OC)c2OC)cc1 [Compound 10, (E)-3-(4-(4-(diethylamino)butoxy)phenyl)-1-(6-hydroxy-2,3,4-trimethoxyphenyl)prop-2-en-1-one] | 1.02 ± 0.01 μM of Trolox equivalent/μM of compounds | 25.6 ± 0.03% |  | 4.94 ± 0.02 µM | >101.2 | 26.2% and 26.2 ± 0.28% | 14.6 ± 0.03 µM | 2.72 ± 0.02 µM | 49.4 ± 0.02% | 37.7 ± 0.02% | > 500 µM |  | 27.9 ± 0.28 µM | 1.9 |  |  |  | 
